Reference: patent publication US10798941B2, “Microbiocidal oxadiazole derivatives” (SYNGENTA PARTICIPATIONS AG, priority 2016, dated 2020)

Key:
[1] = tested on: Puccinia recondita f. Sp. Tritici; test: Puccinia recondita f. sp. tritici / wheat / leaf disc curative (brown rust); type: in vivo; conditions: foliar, 144 h, 200 ppm in the applied formulation, wheat leaf segments cv. Kanzler, applied 1 day after inoculation, assessed 6 to 8 days after application, vs untreated, read-out: disease control
Protocol: (§1) Leaf disks or leaf segments of various plant species are cut from plants grown in a greenhouse. The cut leaf disks or segments are placed in multiwell plates (24-well format) onto water agar. The leaf disks are sprayed with a test solution before (preventative) or after (curative) inoculation. Compounds to be tested are prepared as DMSO solutions (max. 10 mg/ml) which are diluted to the appropriate concentration with 0.025% Tween20 just before spraying. The inoculated leaf disks or segments are incubated under defined conditions (temperature, relative humidity, light, etc.) according to the respective test system. A single evaluation of disease level is carried out 3 to 14 days after inoculation, depending on the pathosystem. Percent disease control relative to the untreated check leaf disks or segments is then calculated.
Wheat leaf segments cv. Kanzler are placed on agar in multiwell plates (24-well format). The leaf segments are then inoculated with a spore suspension of the fungus. Plates were stored in darkness at 19° C. and 75% relative humidity. The formulated test compound diluted in water was applied 1 day after inoculation. The leaf segments were incubated at 19° C. and 75% relative humidity under a light regime of 12 hours light/12 hours darkness in a climate cabinet and the activity of a compound was assessed as percent disease control compared to untreated when an appropriate level of disease damage appears in untreated check leaf segments (6 to 8 days after application).
(§2) The following compounds at 200 ppm in the applied formulation give at least 80% disease control in this test when compared to untreated control leaf disks under the same conditions, which show extensive disease development.

[2] = tested on: Puccinia recondita f. Sp. Tritici; test: Puccinia recondita f. sp. tritici / wheat / leaf disc preventative (brown rust); type: in vivo; conditions: foliar, 168 h, 200 ppm in the applied formulation, wheat leaf segments cv. Kanzler, preventative, inoculated 1 day after application, assessed 7 to 9 days after application, vs untreated, read-out: disease control
Protocol: as §1
Wheat leaf segments cv. Kanzler were placed on agar in multiwell plates (24-well format) and sprayed with the formulated test compound diluted in water. The leaf disks were inoculated with a spore suspension of the fungus 1 day after application. The inoculated leaf segments were incubated at 19° C. and 75% relative humidity (rh) under a light regime of 12 hours light/12 hours darkness in a climate cabinet and the activity of a compound was assessed as percent disease control compared to untreated when an appropriate level of disease damage appears in untreated check leaf segments (7 to 9 days after application).
as §2

[3] = tested on: Glomerella Lagenarium (Colletotrichum Lagenarium); test: Glomerella lagenarium (Colletotrichum lagenarium) liquid culture / cucumber / preventative (anthracnose); type: cell-based; conditions: Colletotrichum orbiculare; 20 ppm in the applied formulation; liquid culture in PDB, 24° C., inhibition of growth measured photometrically 3 to 4 days after application, vs untreated; read-out: disease control
Protocol: Mycelia fragments or conidia suspensions of a fungus prepared either freshly from liquid cultures of the fungus or from cryogenic storage, are directly mixed into nutrient broth. DMSO solutions of the test compound (max. 10 mg/ml) are diluted with 0.025% Tween20 by a factor of 50 and 10 μl of this solution is pipetted into a microtiter plate (96-well format). The nutrient broth containing the fungal spores/mycelia fragments is then added to give an end concentration of the tested compound. The test plates are incubated in the dark at 24° C. and 96% relative humidity. The inhibition of fungal growth is determined photometrically after 2 to 7 days, depending on the pathosystem, and percent antifungal activity relative to the untreated check is calculated.
Conidia of the fungus from cryogenic storage are directly mixed into nutrient broth (PDB—potato dextrose broth). After placing a (DMSO) solution of test compound into a microtiter plate (96-well format), the nutrient broth containing the fungal spores is added.
The following compounds at 20 ppm in the applied formulation give at least 80% disease control in this test when compared to untreated control under the same conditions, which show extensive disease development.

**Q.** With Cc1nccn1Cc1ccc(-c2noc(C(F)(F)F)n2)cc1F [Compound 1.123, 3-[3-fluoro-4-[(2-methylimidazol-1-yl)methyl]phenyl]-5-(trifluoromethyl)-1,2,4-oxadiazole] as the compound, how does the pest or weed control at 200 ppm [1] read?
**A.** The pest or weed control at 200 ppm was at least 80%.

**Q.** And the pest or weed control at 200 ppm [2]?
**A.** Its pest or weed control at 200 ppm is at least 80%.

**Q.** FC(F)(F)c1nc(-c2ccc(Cn3cc(I)cn3)cc2)no1 [Compound 1.44, 3-[4-[(4-iodopyrazol-1-yl)methyl]phenyl]-5-(trifluoromethyl)-1,2,4-oxadiazole] was tested. Which inhibition of growth at 20 ppm [3] did it give?
**A.** The inhibition of growth at 20 ppm was at least 80%.

**Q.** What about the pest or weed control at 200 ppm [1] of the same compound?
**A.** The pest or weed control at 200 ppm was at least 80%.

**Q.** What about the pest or weed control at 200 ppm [2] of the same compound?
**A.** The pest or weed control at 200 ppm was at least 80%.

**Q.** How did the pest or weed control at 200 ppm [1] turn out when CNC(=O)c1cn(Cc2ccc(-c3noc(C(F)(F)F)n3)cc2)nn1 [Compound 1.272, N-methyl-1-[[4-[5-(trifluoromethyl)-1,2,4-oxadiazol-3-yl]phenyl]methyl]triazole-4-carboxamide] was run?
**A.** Its pest or weed control at 200 ppm is at least 80%.

**Q.** O=Cc1nccn1Cc1ccc(-c2noc(C(F)(F)F)n2)cc1 [Compound 1.71, 1-[[4-[5-(trifluoromethyl)-1,2,4-oxadiazol-3-yl]phenyl]methyl]imidazole-2-carbaldehyde] was tested. Which pest or weed control at 200 ppm [1] did it give?
**A.** Its pest or weed control at 200 ppm is at least 80%.

**Q.** What does the source list for Fc1cc(-c2noc(C(F)(F)F)n2)ccc1Cn1cc(Br)cn1 [Compound 1.132, 3-[4-[(4-bromopyrazol-1-yl)methyl]-3-fluoro-phenyl]-5-(trifluoromethyl)-1,2,4-oxadiazole]?
**A.** inhibition of growth at 20 ppm [3]: ≥ 80%; pest or weed control at 200 ppm [1]: ≥ 80%; pest or weed control at 200 ppm [2]: ≥ 80%

**Q.** With Cc1cn(Cc2ccc(-c3noc(C(F)(F)F)n3)cc2)c(C)n1 [Compound 1.78, 3-[4-[(2,4-dimethylimidazol-1-yl)methyl]phenyl]-5-(trifluoromethyl)-1,2,4-oxadiazole] as the compound, how does the pest or weed control at 200 ppm [1] read?
**A.** The pest or weed control at 200 ppm was at least 80%.

**Q.** With N#Cc1ncn(Cc2ccc(-c3noc(C(F)(F)F)n3)cc2F)c1C#N [Compound 1.119, 1-[[2-fluoro-4-[5-(trifluoromethyl)-1,2,4-oxadiazol-3-yl]phenyl]methyl]imidazole-4,5-dicarbonitrile] as the compound, how does the inhibition of growth at 20 ppm [3] read?
**A.** Its inhibition of growth at 20 ppm is at least 80%.

**Q.** What about the pest or weed control at 200 ppm [1] of the same compound?
**A.** The pest or weed control at 200 ppm was at least 80%.

**Q.** And the pest or weed control at 200 ppm [2]?
**A.** Its pest or weed control at 200 ppm is at least 80%.

**Q.** FC(F)(F)c1nc(-c2ccc(Cn3cnc(Cl)c3Cl)cc2)no1 [Compound 1.46, 3-[4-[(4,5-dichloroimidazol-1-yl)methyl]phenyl]-5-(trifluoromethyl)-1,2,4-oxadiazole] was tested. Which inhibition of growth at 20 ppm [3] did it give?
**A.** Its inhibition of growth at 20 ppm is at least 80%.

**Q.** What about the pest or weed control at 200 ppm [1] of the same compound?
**A.** The pest or weed control at 200 ppm was at least 80%.

**Q.** And the pest or weed control at 200 ppm [2]?
**A.** Its pest or weed control at 200 ppm is at least 80%.

**Q.** Which results are given for Cc1cn(Cc2ccc(-c3noc(C(F)(F)F)n3)cc2F)c(C)n1 [Compound 1.145, 3-[4-[(2,4-dimethylimidazol-1-yl)methyl]-3-fluoro-phenyl]-5-(trifluoromethyl)-1,2,4-oxadiazole]?
**A.** pest or weed control at 200 ppm [1]: ≥ 80%; pest or weed control at 200 ppm [2]: ≥ 80%

**Q.** Which pest or weed control at 200 ppm [1] does the source give for CON=C1CCN(Cc2ccc(-c3noc(C(F)(F)F)n3)cc2)CC1 [Compound 1.293, N-methoxy-1-[[4-[5-(trifluoromethyl)-1,2,4-oxadiazol-3-yl]phenyl]methyl]piperidin-4-imine] here?
**A.** The pest or weed control at 200 ppm was at least 80%.

**Q.** FC(F)(F)c1nc(-c2ccc(Cn3cncn3)nc2)no1 [Compound 1.143, 3-[6-(1,2,4-triazol-1-ylmethyl)-3-pyridyl]-5-(trifluoromethyl)-1,2,4-oxadiazole] was tested. Which inhibition of growth at 20 ppm [3] did it give?
**A.** The inhibition of growth at 20 ppm was at least 80%.

**Q.** What about the pest or weed control at 200 ppm [1] of the same compound?
**A.** The pest or weed control at 200 ppm was at least 80%.

**Q.** What does the source list for Fc1ccc2ccn(Cc3ccc(-c4noc(C(F)(F)F)n4)cc3)c2c1 [Compound 1.54, 3-[4-[(6-fluoroindol-1-yl)methyl]phenyl]-5-(trifluoromethyl)-1,2,4-oxadiazole]?
**A.** inhibition of growth at 20 ppm [3]: ≥ 80%; pest or weed control at 200 ppm [1]: ≥ 80%

**Q.** Which inhibition of growth at 20 ppm [3] does the source give for Cc1ccc2c(ccn2Cc2ccc(-c3noc(C(F)(F)F)n3)cc2)c1 [Compound 1.52, 3-[4-[(5-methylindol-1-yl)methyl]phenyl]-5-(trifluoromethyl)-1,2,4-oxadiazole] here?
**A.** The inhibition of growth at 20 ppm was at least 80%.

**Q.** What about the pest or weed control at 200 ppm [2] of the same compound?
**A.** The pest or weed control at 200 ppm was at least 80%.

**Q.** Which results are given for FC(F)(F)c1nc(-c2ccc(Cn3cc(Br)cn3)cc2)no1 [Compound 1.77, 3-[4-[(4-bromopyrazol-1-yl)methyl]phenyl]-5-(trifluoromethyl)-1,2,4-oxadiazole]?
**A.** inhibition of growth at 20 ppm [3]: ≥ 80%; pest or weed control at 200 ppm [1]: ≥ 80%

**Q.** How did the inhibition of growth at 20 ppm [3] turn out when O=C(NCC1CC1)c1cnn(Cc2ccc(-c3noc(C(F)(F)F)n3)cc2)c1 [Compound 1.249, N-(cyclopropylmethyl)-1-[[4-[5-(trifluoromethyl)-1,2,4-oxadiazol-3-yl]phenyl]methyl]pyrazole-4-carboxamide] was run?
**A.** Its inhibition of growth at 20 ppm is at least 80%.

**Q.** And the pest or weed control at 200 ppm [2]?
**A.** Its pest or weed control at 200 ppm is at least 80%.

**Q.** How did the inhibition of growth at 20 ppm [3] turn out when N#CCc1nc2ccccc2n1Cc1ccc(-c2noc(C(F)(F)F)n2)cc1 [Compound 1.58, 2-[1-[[4-[5-(trifluoromethyl)-1,2,4-oxadiazol-3-yl]phenyl]methyl]benzimidazol-2-yl]acetonitrile] was run?
**A.** The inhibition of growth at 20 ppm was at least 80%.

**Q.** And the pest or weed control at 200 ppm [2]?
**A.** The pest or weed control at 200 ppm was at least 80%.

**Q.** CCc1nc2ccccc2n1Cc1ccc(-c2noc(C(F)(F)F)n2)cc1 [Compound 1.63, 3-[4-[(2-ethylbenzimidazol-1-yl)methyl]phenyl]-5-(trifluoromethyl)-1,2,4-oxadiazole] was tested. Which inhibition of growth at 20 ppm [3] did it give?
**A.** The inhibition of growth at 20 ppm was at least 80%.

**Q.** What about the pest or weed control at 200 ppm [2] of the same compound?
**A.** The pest or weed control at 200 ppm was at least 80%.

**Q.** How did the pest or weed control at 200 ppm [1] turn out when Cc1cn(Cc2ccc(-c3noc(C(F)(F)F)n3)cn2)c(C)n1 [Compound 1.134, 3-[6-[(2,4-dimethylimidazol-1-yl)methyl]-3-pyridyl]-5-(trifluoromethyl)-1,2,4-oxadiazole] was run?
**A.** The pest or weed control at 200 ppm was at least 80%.

**Q.** What does the source list for FC(F)(F)c1nc(-c2ccc(Cn3ncnc3C(F)(F)F)cc2)no1 [Compound 1.38, 5-(trifluoromethyl)-3-[4-[[5-(trifluoromethyl)-1,2,4-triazol-1-yl]methyl]phenyl]-1,2,4-oxadiazole]?
**A.** inhibition of growth at 20 ppm [3]: ≥ 80%; pest or weed control at 200 ppm [1]: ≥ 80%

**Q.** How did the pest or weed control at 200 ppm [1] turn out when FC(F)(F)c1nc(-c2ccc(Cn3ccnc3)nc2)no1 [Compound 1.141, 3-[6-(imidazol-1-ylmethyl)-3-pyridyl]-5-(trifluoromethyl)-1,2,4-oxadiazole] was run?
**A.** The pest or weed control at 200 ppm was at least 80%.

**Q.** And the pest or weed control at 200 ppm [2]?
**A.** Its pest or weed control at 200 ppm is at least 80%.

**Q.** What does the source list for COC(=O)c1ncn(Cc2ccc(-c3noc(C(F)(F)F)n3)cc2Cl)n1 [Compound 1.108, methyl 1-[[2-chloro-4-[5-(trifluoromethyl)-1,2,4-oxadiazol-3-yl]phenyl]methyl]-1,2,4-triazole-3-carboxylate]?
**A.** inhibition of growth at 20 ppm [3]: ≥ 80%; pest or weed control at 200 ppm [2]: ≥ 80%

**Q.** For FC(F)(F)c1nc(-c2ccc(Cn3ccnc3)c(Cl)c2)no1 [Compound 1.112, 3-[3-chloro-4-(imidazol-1-ylmethyl)phenyl]-5-(trifluoromethyl)-1,2,4-oxadiazole], which inhibition of growth at 20 ppm [3] is on record?
**A.** Its inhibition of growth at 20 ppm is at least 80%.

**Q.** And the pest or weed control at 200 ppm [2]?
**A.** The pest or weed control at 200 ppm was at least 80%.

**Q.** Fc1cc(-c2noc(C(F)(F)F)n2)ccc1Cn1cnc2ccccc21 [Compound 1.126, 3-[4-(benzimidazol-1-ylmethyl)-3-fluoro-phenyl]-5-(trifluoromethyl)-1,2,4-oxadiazole] was tested. Which inhibition of growth at 20 ppm [3] did it give?
**A.** The inhibition of growth at 20 ppm was at least 80%.

**Q.** What about the pest or weed control at 200 ppm [2] of the same compound?
**A.** The pest or weed control at 200 ppm was at least 80%.

**Q.** With COc1ccc2c(ccn2Cc2ccc(-c3noc(C(F)(F)F)n3)cc2)c1 [Compound 1.75, 3-[4-[(5-methoxyindol-1-yl)methyl]phenyl]-5-(trifluoromethyl)-1,2,4-oxadiazole] as the compound, how does the inhibition of growth at 20 ppm [3] read?
**A.** Its inhibition of growth at 20 ppm is at least 80%.

**Q.** And the pest or weed control at 200 ppm [2]?
**A.** Its pest or weed control at 200 ppm is at least 80%.

**Q.** How did the inhibition of growth at 20 ppm [3] turn out when N#Cc1ncnn1Cc1ccc(-c2noc(C(F)(F)F)n2)nc1 [Compound 1.258, 2-[[6-[5-(trifluoromethyl)-1,2,4-oxadiazol-3-yl]-3-pyridyl]methyl]-1,2,4-triazole-3-carbonitrile] was run?
**A.** The inhibition of growth at 20 ppm was at least 80%.

**Q.** What about the pest or weed control at 200 ppm [1] of the same compound?
**A.** The pest or weed control at 200 ppm was at least 80%.
